# Laboratory results taken from patent publication EP0021678B1, “1-Sulpho-2-oxoazetidine derivatives, their production and pharmaceutical compositions thereof” (Takeda Chemical Industries, Ltd., priority 1979, dated 1981).
# Read-outs that look alike come from different tables or passages of the source.
# How the values were obtained:
# Assay in all cases: Anti-bacterial test, minimum inhibitory concentration on agar
# Type in all cases: cell-based
# [1] = tested on: Proteus vulgaris IFO 3988; settings: IFO3988; Proteus vulgaris IFO 3988; medium TSA; read-out: Minimum inhibitory concentration
# Excerpt: (§1) The compound (I) thus obtained is useful as a drug, being active against certain gram-positive and gram-negative bacteria. By way of example, the compounds are active against the following micro-organisms.
# (§2) The media and compounds employed in the anti-bacterial test are as follows: • Media: • TSA = Trypticase soy agar • [Baltimore Biologicals (U.S.A.)] • B-TSA = Blood trypticase soy agar • Compounds: • Compound A = Sodium 3-[2-(2-amino-4-thiazolyl)-2-methoxyiminoacetamido]-2-oxo-azetidine-1-sulphonate • Compound B = Sodium 3-[D(-)-N-(4-ethyl-2,3-dioxo-1-piperazinocarbonyl)-phenyl-glycin- amido]-2-oxoazetidine-1-sulphonate • Compound C = Sodium 3-[D(-)-N-(4-ethyl-2,3-dioxo-1-piperazinocarbonyl)phenylglycinamido]-3-methoxy-2-oxoazetidine-1-sulphonate • Compound D = Sodium 3-[2-(4-ethyl-2,3-dioxo-1-piperazinocarboxamido)-2-(2-amino-4-thiazolyl)-acetamido]-2-oxoazetidine-1-sulphonate • Compound E = Sodium 3-[DL-2-(4-ethyl-2,3-dioxo-1-piperazinocarboxamido)-2-thienylacetamido]-2-oxoazetidine-1-sulphonate • Compound F = Sodium 3-[D-2-(4-ethyl-2,3-dioxo-1-piperazinocarboxamido)-2-thienylacetamido]-2-oxoazetidine-1-sulphonate • Compound G = Sodium 3-[D-2-(4-n-octyl-2,3-dioxo-1-piperazinocarboxamido)-2-phenylacetamido]-2-oxoazetidine-1-sulphonate • Compound H = Sodium 3-[2-(4-n-octyl-2,3-dioxo-1-piperazinocarboxamido)-2-(2-amino-4-thiazolyl)-acetamido]-2-oxoazetidine-1-sulphonate • Compound I = Sodium 3-[D-2-[(2-oxo-3-furfurylideneaminoimidazolidin-1-yl)-carboxamido]-2-phenylacetamido]-2-oxoazetidine-1-sulphonate • Compound J = Sodium 3-[2-(4-n-octyl-2,3-dioxo-1-piperazinocarboxamido)-2-thienylacetamido]-2-oxoazetidine-1-sulphonate • Compound K = Sodium 3-[D-2-[[2-oxo-3-(thiophen-2-aidoimino)-imidazolidin-1-yl]-carboxamido]-2-phenylacetamido]-2-oxoazetidine-1-sulphonate • Compound L = Sodium 3-[2-[(2-oxo-3-furfurylideneaminoimidazolidin-1-yl)-carboxamido]-2-thienylacetamido]-2-oxoazetidine-1-sulphonate
# [2] = tested on: Pseudomonas aeruginosa IFO 3455; settings: IFO3455; Pseudomonas aeruginosa IFO 3455; medium TSA; read-out: Minimum inhibitory concentration
# Excerpt: as §1, §2
# [3] = tested on: Streptococcus pyogenes E—14; settings: Streptococcus pyogenes E—14; medium B—TSA; read-out: Minimum inhibitory concentration
# Excerpt: as §1, §2
# [4] = tested on: Escherichia coli NIHJ JC—2; settings: Escherichia coli NIHJ JC—2; medium TSA; read-out: Minimum inhibitory concentration
# Excerpt: as §1, §2
# [5] = tested on: Staphylococcus aureus 308A—1; settings: Staphylococcus aureus 308A—1; medium TSA; read-out: Minimum inhibitory concentration
# Excerpt: as §1, §2
# [6] = tested on: Corynebacterium diphtheriae Toronto; settings: Corynebacterium diphtheriae Toronto; medium B—TSA; read-out: Minimum inhibitory concentration
# Excerpt: as §1, §2
# [7] = tested on: Proteus mirabilis IFO 3849; settings: IFO3849; Proteus mirabilis IFO 3849; medium TSA; read-out: Minimum inhibitory concentration
# Excerpt: as §1, §2
# Escherichia coli T-7 = settings: T7, medium TSA
# Excerpt: as §1, §2
# Klebsiella pneumoniae DT = settings: Klebsiella pneumoniae DT; medium TSA; read-out: Minimum inhibitory concentration
# Excerpt: as §1, §2
# [8] = tested on: Staphylococcus aureus 1840; settings: Staphylococcus aureus 1840; medium TSA; read-out: Minimum inhibitory concentration
# Excerpt: as §1, §2
# [9] = tested on: Enterobacter cloacae IFO 12937; settings: IFO12937; Enterobacter cloacae IFO 12937; medium TSA; read-out: Minimum inhibitory concentration
# Excerpt: as §1, §2
# [10] = tested on: Bordetella bronchiseptica Sagami; settings: Bordetella bronchiseptica Sagami; medium B—TSA; read-out: Minimum inhibitory concentration
# Excerpt: as §1, §2
# [11] = tested on: Staphylococcus aureus FDA209P; settings: Staphylococcus aureus, FDA209P, Staphylococcus aureus FDA209P, read-out: Minimum inhibitory concentration
# Excerpt: as §1, §2
# [12] = tested on: Serratia marcescens IFO 12648; settings: IFO12648; Serratia marcescens IFO 12648; medium TSA; read-out: Minimum inhibitory concentration
# Excerpt: as §1, §2
# [13] = tested on: Streptococcus pneumoniae Type I; settings: Streptococcus pneumoniae Type I; medium B—TSA; read-out: Minimum inhibitory concentration
# Excerpt: as §1, §2
# [14] = tested on: Proteus morganii IFO 3168; settings: Morganella morganii, IFO3168; Proteus morganii IFO 3168; medium TSA; read-out: Minimum inhibitory concentration
# Excerpt: as §1, §2
# [15] = tested on: Citrobacter freundii IFO 12681; settings: IFO12681; Citrobacter freundii IFO 12681; medium TSA; read-out: Minimum inhibitory concentration
# Excerpt: as §1, §2
# [16] = tested on: Pseudomonas aeruginosa U 31; settings: U31; Pseudomonas aeruginosa U 31; medium TSA; read-out: Minimum inhibitory concentration
# Excerpt: as §1, §2
# [17] = tested on: Acinetobacter calcoaceticus IFO 13006; settings: IFO13006; Acinetobacter calcoaceticus IFO 13006; medium TSA; read-out: Minimum inhibitory concentration
# Excerpt: as §1, §2
# [18] = tested on: Streptococcus faecium IFO 3128; settings: Enterococcus faecium, IFO3128; Streptococcus faecium IFO 3128; medium B—TSA; read-out: Minimum inhibitory concentration
# Excerpt: as §1, §2
# [19] = tested on: Streptococcus mitis America; settings: Streptococcus mitis America; medium B—TSA; read-out: Minimum inhibitory concentration
# Excerpt: as §1, §2
# Escherichia coli O—111 = settings: medium TSA
# Excerpt: as §1, §2
# [20] = tested on: Streptococcus pyogenes S—8; settings: Streptococcus pyogenes S—8; medium B—TSA; read-out: Minimum inhibitory concentration
# Excerpt: as §1, §2
# Candida albicans TA = settings: Candida albicans TA; medium TSA; read-out: Minimum inhibitory concentration
# Excerpt: as §1, §2
Compound,MIC [1] [µg/mL],MIC [2] [µg/mL],MIC [3] [µg/mL],MIC [4] [µg/mL],MIC [5] [µg/mL],MIC [6] [µg/mL],MIC [7] [µg/mL],MIC (Escherichia coli T-7) [µg/mL],MIC (Klebsiella pneumoniae DT) [µg/mL],MIC [8] [µg/mL],MIC [9] [µg/mL],MIC [10] [µg/mL],MIC ([11]; medium B—TSA) [µg/mL],MIC ([11]; medium TSA) [µg/mL],MIC [12] [µg/mL],MIC [13] [µg/mL],MIC [14] [µg/mL],MIC [15] [µg/mL],MIC [16] [µg/mL],MIC [17] [µg/mL],other results
"CCCCCCCCN1CCN(C(=O)N[C@@H](C(=O)NC2CN(S(=O)(=O)O)C2=O)c2ccccc2)C(=O)C1=O (stereo partly drawn) [Compound G, Sodium 3-[D-2-(4-n-octyl-2,3-dioxo-1-piperazinocarboxamido)-2-phenylacetamido]-2-oxoazetidine-1-sulphonate]",0.78,1.56,1.56,3.13,0.78,25,3.13,> 100,0.78,25,6.25,> 100,3.13,1.56,1.56,3.13,1.56,3.13,25,3.13,MIC [18]: > 100 µg/mL; MIC [19]: 25 µg/mL; MIC (Escherichia coli O—111): 0.78 µg/mL; MIC [20]: 1.56 µg/mL; MIC (Candida albicans TA): > 100 µg/mL
"O=C(NC1CN(S(=O)(=O)O)C1=O)[C@H](NC(=O)N1CCN(N=Cc2cccs2)C1=O)c1ccccc1 (stereo partly drawn) [Compound K, Sodium 3-[D-2-[[2-oxo-3-(thiophen-2-aidoimino)-imidazolidin-1-yl]-carboxamido]-2-phenylacetamido]-2-oxoazetidine-1-sulphonate]",0.39,3.13,0.78,1.56,3.13,3.13,1.56,> 100,0.39,50,12.5,> 100,6.25,6.25,1.56,1.56,12.5,1.56,> 100,50,MIC [18]: > 100 µg/mL; MIC [19]: 1.56 µg/mL; MIC (Escherichia coli O—111): 0.39 µg/mL; MIC [20]: 1.56 µg/mL; MIC (Candida albicans TA): > 100 µg/mL
"CCN1CCN(C(=O)NC(C(=O)NC2CN(S(=O)(=O)O)C2=O)c2csc(N)n2)C(=O)C1=O (stereo not shown) [Compound D, Sodium 3-[2-(4-ethyl-2,3-dioxo-1-piperazinocarboxamido)-2-(2-amino-4-thiazolyl)-acetamido]-2-oxoazetidine-1-sulphonate]",0.1,3.13,3.13,0.39,6.25,3.13,25,> 100,0.2,25,25,> 100,12.5,12.5,0.78,6.25,12.5,1.56,> 100,50,MIC [18]: > 100 µg/mL; MIC [19]: 25 µg/mL; MIC (Escherichia coli O—111): 0.1 µg/mL; MIC [20]: 3.13 µg/mL; MIC (Candida albicans TA): > 100 µg/mL
"CCN1CCN(C(=O)N[C@@H](C(=O)NC2CN(S(=O)(=O)O)C2=O)c2ccccc2)C(=O)C1=O (single isomer, unassigned) [Compound B, Sodium 3-[D(-)-N-(4-ethyl-2,3-dioxo-1-piperazinocarbonyl)-phenyl-glycin-amido]-2-oxoazetidine-1-sulphonate]",0.1,1.56,3.13,1.56,3.13,3.13,0.78,> 100,0.2,25,50,> 100,6.25,6.25,3.13,6.25,25,6.25,> 100,25,MIC [18]: > 100 µg/mL; MIC [19]: 25 µg/mL; MIC (Escherichia coli O—111): 0.2 µg/mL; MIC [20]: 6.25 µg/mL; MIC (Candida albicans TA): > 100 µg/mL
